Measured values: paper PMC6095594, “Pre-clinical evaluation of quinoxaline-derived chalcones in tuberculosis” (PLoS ONE, 2018)

Tests used:
S. typhimurium TA1535 = assay: Salmonella/microsome mutagenicity test
Description: Salmonella typhimurium strains TA98, TA97a, TA100, TA1535, and TA102 were provided by MOLTOX® (Molecular Toxicology Inc. USA). Mutagenicity was assayed according to the pre-incubation procedure following the recommendation described in Mortelmans and Zieger (2000). […] Briefly, 100 μL of test bacterial cultures (1–2 x 10^9 cells/mL) were incubated at 37 °C with different concentrations of N9 (10–400 μg/plate) in the presence or absence of S9 mix, for 20 min, without shaking. […] Plates were incubated in the dark at 37 °C for 48 h before counting the revertant colonies. Assays were repeated twice and the plating for each concentration was conducted in triplicate. Data were evaluated by one-way analysis of variance (ANOVA), followed by Dunnett's post-test, using GraphPad Prism 5.0 (GraphPad, San Diego, CA, USA).

CYP2E1 = CYP2E1 (Homo sapiens, UniProt P05181); details: human liver microsomes, CYP2E1, N9 0.01–100 μmol L^-1
CYP2D6 = CYP2D6 (Homo sapiens, UniProt P10635); details: human liver microsomes, CYP2D6, N9 0.01–100 μmol L^-1
CYP1A2 = CYP1A2 (Homo sapiens, UniProt P05177); assay: biochemical
Chain of CYP1A2 (P05177 whole entry): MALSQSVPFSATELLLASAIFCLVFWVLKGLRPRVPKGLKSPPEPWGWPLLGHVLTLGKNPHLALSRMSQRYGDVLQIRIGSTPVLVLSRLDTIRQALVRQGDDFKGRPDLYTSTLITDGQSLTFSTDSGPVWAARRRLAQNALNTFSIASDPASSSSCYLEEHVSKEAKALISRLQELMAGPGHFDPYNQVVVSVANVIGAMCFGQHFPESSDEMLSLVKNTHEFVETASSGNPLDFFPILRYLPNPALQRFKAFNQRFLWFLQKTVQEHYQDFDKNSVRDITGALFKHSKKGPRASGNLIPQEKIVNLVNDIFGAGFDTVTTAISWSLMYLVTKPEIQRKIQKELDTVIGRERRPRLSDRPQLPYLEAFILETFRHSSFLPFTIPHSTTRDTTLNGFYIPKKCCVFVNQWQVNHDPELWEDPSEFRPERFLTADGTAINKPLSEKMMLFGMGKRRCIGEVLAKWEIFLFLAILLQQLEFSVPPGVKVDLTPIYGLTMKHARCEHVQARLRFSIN

Chain of CYP2D6 (P10635 whole entry): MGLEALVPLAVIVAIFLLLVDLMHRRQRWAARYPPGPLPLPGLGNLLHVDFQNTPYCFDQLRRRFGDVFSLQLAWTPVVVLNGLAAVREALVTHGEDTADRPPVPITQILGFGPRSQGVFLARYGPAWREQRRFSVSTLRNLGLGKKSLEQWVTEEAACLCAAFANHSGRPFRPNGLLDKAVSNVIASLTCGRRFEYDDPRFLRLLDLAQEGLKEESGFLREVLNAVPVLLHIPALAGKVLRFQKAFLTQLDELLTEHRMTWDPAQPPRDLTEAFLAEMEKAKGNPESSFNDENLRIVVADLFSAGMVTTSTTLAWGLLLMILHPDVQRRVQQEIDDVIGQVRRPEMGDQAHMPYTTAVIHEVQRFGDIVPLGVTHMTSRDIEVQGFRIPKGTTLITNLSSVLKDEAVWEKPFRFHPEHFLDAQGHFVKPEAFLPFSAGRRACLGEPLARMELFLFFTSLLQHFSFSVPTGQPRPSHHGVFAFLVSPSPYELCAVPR
Chain of CYP2E1 (P05181 whole entry): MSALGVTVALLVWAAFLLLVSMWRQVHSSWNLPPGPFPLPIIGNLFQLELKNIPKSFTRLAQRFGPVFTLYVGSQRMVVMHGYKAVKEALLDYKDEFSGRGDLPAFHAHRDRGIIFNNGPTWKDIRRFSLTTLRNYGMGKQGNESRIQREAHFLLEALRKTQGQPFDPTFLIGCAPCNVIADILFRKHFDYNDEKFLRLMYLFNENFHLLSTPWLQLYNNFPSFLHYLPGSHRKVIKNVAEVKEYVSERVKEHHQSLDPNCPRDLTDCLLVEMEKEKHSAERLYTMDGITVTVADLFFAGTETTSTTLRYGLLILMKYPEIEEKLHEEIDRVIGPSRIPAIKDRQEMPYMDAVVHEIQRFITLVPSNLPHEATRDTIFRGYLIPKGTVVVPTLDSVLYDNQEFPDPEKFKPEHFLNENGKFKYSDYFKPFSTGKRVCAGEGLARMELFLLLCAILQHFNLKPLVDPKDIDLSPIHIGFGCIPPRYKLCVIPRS

## COc1ccc(OC)c(C(=O)/C=C/c2ccc3nccnc3c2)c1 [N9]
S. typhimurium TA1535; TA1535, +S9, 10 μg/plate
  MI: mutagenic index: 1.16
  Number of revertants/plate: 9.7±1.2 Rev/plate
S. typhimurium TA1535; TA1535, +S9, 50 μg/plate
  MI: mutagenic index: 1.24
  Number of revertants/plate: 10.3±2.5 Rev/plate
S. typhimurium TA1535; TA1535, +S9, 100 μg/plate
  MI: mutagenic index: 1.00
  Number of revertants/plate: 8.3±4.9 Rev/plate
S. typhimurium TA1535; TA1535, +S9, 200 μg/plate
  MI: mutagenic index: 1.04
  Number of revertants/plate: 8.7±1.2 Rev/plate
S. typhimurium TA1535; TA1535, +S9, 400 μg/plate
  MI: mutagenic index: 0.68
  Number of revertants/plate: 5.7±1.2 Rev/plate
S. typhimurium TA1535; TA1535, -S9, 10 μg/plate
  MI: mutagenic index: 1.03
  Number of revertants/plate: 11.7±0.6 Rev/plate
S. typhimurium TA1535; TA1535, -S9, 50 μg/plate
  MI: mutagenic index: 0.82
  Number of revertants/plate: 9.3±0.6 Rev/plate
S. typhimurium TA1535; TA1535, -S9, 100 μg/plate
  MI: mutagenic index: 1.03
  Number of revertants/plate: 11.7±5.9 Rev/plate
S. typhimurium TA1535; TA1535, -S9, 200 μg/plate
  MI: mutagenic index: 1.18
  Number of revertants/plate: 13.3±4.0 Rev/plate
S. typhimurium TA1535; TA1535, -S9, 400 μg/plate
  MI: mutagenic index: 1.24
  Number of revertants/plate: 14.0±3.6 Rev/plate
CYP2E1
  percentage of remaining enzyme activity: approximately 100%
CYP2D6
  percentage of remaining enzyme activity: approximately 100%
CYP1A2
  IC50: 2000 nM
